{
  "source": "patent US20220016048A1",
  "about": "“CANNABIDIOL-TYPE CANNABINOID COMPOUND” (GW Research Limited, priority 2018, published 2022)",
  "key": {"[1]": {"experiment": "Toxicokinetic evaluation in embryo-foetal development study", "type": "in vivo, rat", "procedure": "Three groups of 20 time-mated female Wistar (Han) rats were given CBD-C4 once daily by the oral (gavage) route from Day 6 to Day 17 of gestation at dose levels of 1, 10 or 100 mg/kg/day (at a constant dose volume of 5 mL/kg), to cover the period of organogenesis.\nBlood samples were taken for toxicokinetic evaluation at pre-dose, 1, 2, 4, 6 and 24 hours after dosing on Days 6 and 17 of gestation. Clinical observations, body weight and food consumption were recorded. On Day 21 of gestation (GD 21) the females were euthanised, and the progress and outcome of pregnancy was evaluated."}, "[2]": {"test_system": "mouse model of seizure", "experiment": "maximal electroshock (MES) test in the mouse", "type": "in vivo", "details": "for decrease in the number of mice showing tonic convulsions, as compared with vehicle controls: p<0.001", "procedure": "Mice were administered MES (50 mA, rectangular current: 0.6 ms pulse width, 0.4 s duration, 50 Hz) via corneal electrodes connected to a constant current shock generator (Ugo Basile: type 7801). The number of tonic convulsions was recorded.\nTwelve mice were studied per group. The test was performed blind.\nThe test substance, CBD-C4, was evaluated at 5 doses (3, 10, 30, 100 and 200 mg/kg), administered i.p. 60 minutes before MES, and compared with a vehicle control group (administered under the same experimental conditions).\nDiazepam (2 mg/kg i.p.), administered i.p. 30 minutes before MES, was used as a reference substance and was compared with a vehicle group (administered i.p. 60 minutes before MES).\nData was analysed by comparing treated groups with the appropriate vehicle control using Fisher's Exact Probability tests."}, "[3]": {"test_system": "sub-chronic PCP-induced deficit in social behaviour in female Lister-Hooded rats", "experiment": "social interaction test in sub-chronic PCP treated rats", "type": "in vivo, rat", "procedure": "The aim of the current study was to investigate the ability of CBD-C4 (3, 10 & 30 mg/kg IP; 60 min pre-treatment (ptt)) in comparison with risperidone (an atypical antipsychotic; 0.1 mg/kg IP; 60 min pre-treatment), to antagonise a sub-chronic PCP (scPCP; 2 mg/kg IP; twice daily for 7-days; 7 day wash out)-induced deficit in social behaviour in female Lister-Hooded rats.\n180 female Lister Hooded rats were used for this experiment, of which 90 were used for the drug study and 90 weight-matched untreated conspecifics were used as the companion rat, and their behaviour was not scored.\nRats were housed in groups of 5 under standard laboratory conditions under a 12-hr light: dark cycle, lights on at 0700 hr. Testing was carried out in the light phase. These studies were carried out in accordance with the Animals Scientific Procedures Act (UK, 1986).\nCBD-C4 was used at doses of (3, 10, 30 mg/kg, i.p.) and risperidone was used at a dose of 0.1 mg/kg, i.p.\nRats were randomly assigned to two treatment groups and treated with vehicle, n=15 (distilled water, i.p.) or PCP, n=75 (2 mg/kg, i.p. twice daily for 7-days). This was followed by a 7-day wash out period before the rats were tested following acute treatment with CBD-C4, risperidone or vehicle.\nRisperidone (0.1 mg/kg) was dissolved in a minimum volume of acetic acid, made up to volume with distilled water and pH adjusted to 6 with 0.1M NaOH and administered via the i.p. route in a volume of 1 ml/kg, 60 min prior to testing.\nCBD-C4 (3, 10 & 30 mg/kg) was dissolved in 2:1:17 (Ethanol:Cremophor EL:Saline 0.9%). CBD-C4 was administered via the i.p. route in a volume of 5 ml/kg, 60 min prior to testing.\nThe social interaction test was performed in an open-field comprising a square box made of Plexiglas (52×52×31 cm) placed 27 cm above the floor on a moveable trolley. The floor of the box was white with black gridlines forming 9 identical squares on it. All other walls were black. A video camera connected to a video recorder and monitor was positioned above the box. The object used for the test consists of a heavy structure made of metal that cannot be displaced by the animals.\nAfter a 7 day drug-free period, the rats were habituated to the test environment and arena prior to the test day. Habituation consisted of placing all rats from one cage together in the empty test arena for one hour for three days including the day before the test day.\nPairs of rats, weight matched (15-20 g) and unfamiliar to each other, receiving either no treatment (n=90 “conspecific” rats) or different treatments (PCP; n=15 “tested” rats, Vehicle; n=15 “tested” rats, or PCP+drug; n=60 “tested” rats) were placed in the test arena together for 10 minutes and behavior assessed as described below.\nAn inanimate object such as an unopened drink can was also placed in the centre of the arena to measure any differences in interaction of the test animal with an unfamiliar animal as opposed to an unfamiliar object. After each 10-minute trial, the object and arena were cleaned with 10% alcohol in an attempt to remove traces of any olfactory cues. All testing was carried out under standard room illumination levels (70 cd/m^2).\nBehaviour in both trials was recorded on video for subsequent blind scoring. A behavioural scoring software program (Hindsight, Scientific programming services) was used to score the following parameters:\nInvestigative sniffing behaviour: sniffing the conspecific's snout or parts of the body including the anogenital region.\nFollowing: rat moves after the conspecific i.e. a vehicle treated rat of the same species, around the arena.\nAvoidances: actively turning away when approached by the conspecific animal.\nInvestigation of object: exploration of object placed in centre of the arena.\nLocomotor activity is recorded by counting the total number of sectors (i.e. lines) crossed by the test rat.\nAll data were assessed for normality using D'Agostino and Pearson normality test. […]"}, "[4]": {"details": "CBD-C4 3, 10, 30 mg/kg, risperidone 0.1 mg/kg i.p., data not shown"}},
  "data": [
    {"smiles": "C=C(C)[C@@H]1CCC(C)=C[C@H]1c1c(O)cc(CCCC)cc1O", "note": "[CBD-C4, (1′R,2′R)-4-butyl-5′-methyl-2′-(prop-1-en-2-yl)-1′,2′,3′,4′-tetrahydro-[1,1′-biphenyl]-2,6-diol]", "values": [
      {"measurement": "extent of accumulation (exposure after 12 daily doses vs single dose)", "setting": "[1]; 1 mg/kg/day", "result": "approximately 5 fold"},
      {"measurement": "extent of accumulation (exposure after 12 daily doses vs single dose)", "setting": "[1]; 100 mg/kg/day", "result": "~2", "unit": "fold"},
      {"measurement": "time of maximum plasma concentration post dose", "setting": "[1]; GD 6, 1 mg/kg/day oral", "result": 2, "unit": "h"},
      {"measurement": "time of maximum plasma concentration post dose", "setting": "[1]; GD 6, higher dose levels (10, 100 mg/kg/day) oral", "result": 6, "unit": "h"},
      {"measurement": "time of maximum plasma concentration post dose", "setting": "[1]; GD 17, after 12 daily doses, all dose levels", "result": 4, "unit": "h"},
      {"measurement": "plasma levels 24 hours after dosing", "setting": "[1]; both higher dose levels (10, 100 mg/kg/day)", "result": "quantifiable levels of CBD-C4 remained in plasma"},
      {"measurement": "increases in exposure (Cmax and AUC(0-t)) relative to the increase in dose", "setting": "[1]; both sampling occasions (GD 6, GD 17)", "result": "supra-proportional"},
      {"measurement": "time to complete elimination from plasma after dosing", "setting": "[1]; lowest dose level (1 mg/kg/day), both sampling occasions", "result": "≤ 24", "unit": "h"},
      {"measurement": "decrease in the number of mice showing tonic convulsions, as compared with vehicle controls", "setting": "[2]; 100 mg/kg i.p. 60 minutes before MES", "result": "−100", "unit": "%"},
      {"measurement": "decrease in the number of mice showing tonic convulsions, as compared with vehicle controls", "setting": "[2]; 200 mg/kg i.p. 60 minutes before MES", "result": "−100", "unit": "%"},
      {"measurement": "effect on number of mice showing tonic convulsions", "setting": "[2]; lower doses 3, 10 and 30 mg/kg i.p. 60 minutes before MES", "result": "No effects"},
      {"measurement": "behavioural deficits induced by scPCP", "setting": "[3]; 30 mg/kg i.p.", "result": "improved all the behavioural deficits"},
      {"measurement": "avoidance behaviour compared to the scPCP-treated group", "setting": "[3]; 30 mg/kg i.p., 60 min pre-treatment", "result": "significantly decreased"},
      {"measurement": "following behaviour compared to scPCP", "setting": "[3]; 30 mg/kg i.p., 60 min pre-treatment, P<0.001", "result": "significantly increased"},
      {"measurement": "sniffing behaviour compared to scPCP", "setting": "[3]; 30 mg/kg i.p., 60 min pre-treatment, P<0.01", "result": "significant increase"},
      {"measurement": "line crossings (locomotor activity)", "setting": "[3]; [4]", "result": "no significant effect"},
      {"measurement": "object exploration", "setting": "[3]; [4]", "result": "no significant effect"},
      {"measurement": "any of the parameters measured in the social interaction test", "setting": "[3]; lower doses 3 and 10 mg/kg i.p.", "result": "no effect"}
    ]}
  ]
}
